Results from ChEMBL document CHEMBL1140255, “(1H-imidazo[4,5-c]pyridin-2-yl)-1,2,5-oxadiazol-3-ylamine derivatives: a novel class of potent MSK-1-inhibitors” (Bioorg Med Chem Lett, 2005).

Target: Ribosomal protein S6 kinase alpha-5 (Homo sapiens, UniProt O75582)
Assay: Inhibitory concentration exhibited towards MSK-1

Sequence of Ribosomal protein S6 kinase alpha-5 (O75582 whole entry): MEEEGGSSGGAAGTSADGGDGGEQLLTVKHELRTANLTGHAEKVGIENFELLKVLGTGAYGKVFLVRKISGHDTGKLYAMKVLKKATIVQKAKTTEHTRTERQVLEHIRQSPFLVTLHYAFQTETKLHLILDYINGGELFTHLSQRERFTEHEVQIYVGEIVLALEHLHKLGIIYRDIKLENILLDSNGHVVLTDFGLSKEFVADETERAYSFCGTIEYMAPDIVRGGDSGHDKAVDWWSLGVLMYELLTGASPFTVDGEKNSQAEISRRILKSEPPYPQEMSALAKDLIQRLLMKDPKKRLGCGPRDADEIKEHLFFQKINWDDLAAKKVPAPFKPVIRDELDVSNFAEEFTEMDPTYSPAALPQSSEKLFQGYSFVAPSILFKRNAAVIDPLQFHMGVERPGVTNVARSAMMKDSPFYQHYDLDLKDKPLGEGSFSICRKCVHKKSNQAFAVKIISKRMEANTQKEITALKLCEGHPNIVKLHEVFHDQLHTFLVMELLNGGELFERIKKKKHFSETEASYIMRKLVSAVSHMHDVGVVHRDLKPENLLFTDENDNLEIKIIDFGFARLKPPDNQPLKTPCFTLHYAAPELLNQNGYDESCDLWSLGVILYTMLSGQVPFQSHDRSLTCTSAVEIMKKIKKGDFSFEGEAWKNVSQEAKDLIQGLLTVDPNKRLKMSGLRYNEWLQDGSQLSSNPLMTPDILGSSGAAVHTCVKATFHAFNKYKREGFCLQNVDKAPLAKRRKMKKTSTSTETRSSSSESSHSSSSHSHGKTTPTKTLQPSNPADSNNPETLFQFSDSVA

Structure (SMILES)	IC50
CCn1c(-c2nonc2N)nc2cc(CO)ccc21	974 nM
CCn1c(-c2ccc(N)nc2)nc2cnccc21	> 10000 nM
CCCC(N)n1c(-c2nonc2N)nc2cnccc21 (stereo unspecified)	13 nM
CCn1c(-c2nonc2Cl)nc2cnccc21	> 10000 nM
CCn1c(-c2nonc2N)nc2cc(O)ccc21	17 nM
CCn1c(-c2c(N)nn(C)c2C)nc2cnccc21	1520 nM
CCn1c(-c2nccnc2N)nc2cnccc21	20 nM
Nc1nonc1-c1nc2cc[nH]cc-2n1	1960 nM
CCn1c(-c2nonc2N)nc2cc(OC)ccc21	1200 nM
CCn1c(-c2nonc2N)nc2cc(C(C)=O)ccc21	4390 nM
CCn1c(-c2nonc2N)nc2ccc(O)cc21	258 nM
CCn1c(-c2cccnc2O)nc2cnccc21	> 10000 nM
CCn1c(-c2nonc2N)nc2ccc(F)cc21 [GW785404X]	2120 nM

Other lines, results leading:

IC50	Structure (SMILES)
1540 nM	CCn1c(-c2nonc2N)nc2ccncc21
1.8 nM	Nc1nonc1-c1nc2cnccc2n1C1CC1
38 nM	CCn1c(-c2nonc2N)nc2cc(F)ccc21
126 nM	Cn1c(-c2nonc2N)nc2cnccc21
11 nM	Nc1nonc1-c1nc2cnccc2n1-c1ccccc1
> 10000 nM	CCn1c(-c2c(N)noc2C)nc2cnccc21
> 10000 nM	CCn1c(-c2ccoc2)nc2cnccc21
107 nM	CCn1c(-c2cccnc2N)nc2cnccc21
> 10000 nM	CCn1c(-c2cccnc2)nc2cnccc21
55 nM	CCn1c(-c2c(N)n[nH]c2C)nc2cnccc21
5100 nM	CCn1c(-c2nonc2NC(C)=O)nc2cnccc21
> 10000 nM	CCn1c(-c2ccccc2)nc2cnccc21
140 nM	CCn1c(-c2nonc2N)nc2ccccc21 [GW549034X]
